# Like-named read-outs stand apart in the source and are kept apart here.
# How the values were obtained:
# [1] = molecular target: T1, EP3 membrane (EP3 receptor) (Homo sapiens, UniProt P43115); test: [3H]-PGE2 binding; EP3 competition binding (SPA)
# T1 construct: purchased Millipore HTS092M
# T1 sequence (P43115 1-390): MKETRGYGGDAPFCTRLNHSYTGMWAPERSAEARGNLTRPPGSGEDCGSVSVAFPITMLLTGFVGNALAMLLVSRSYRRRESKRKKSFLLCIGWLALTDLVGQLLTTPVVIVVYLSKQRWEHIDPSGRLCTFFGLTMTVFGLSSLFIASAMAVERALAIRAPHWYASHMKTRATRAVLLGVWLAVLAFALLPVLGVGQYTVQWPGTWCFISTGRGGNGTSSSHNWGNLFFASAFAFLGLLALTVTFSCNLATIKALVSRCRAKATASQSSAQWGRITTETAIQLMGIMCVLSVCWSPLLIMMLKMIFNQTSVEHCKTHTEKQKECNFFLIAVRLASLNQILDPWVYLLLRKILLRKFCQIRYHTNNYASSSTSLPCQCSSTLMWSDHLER
# Summary of the method: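 Ki derived from one-site nonlinear regression of scintillation proximity counts after 2 h room-temperature equilibration. Serially diluted (1:3) compounds competed against [3H]-PGE2 (2 nM) for EP3 receptor membranes (2 μg/well) in pH 7.4 Tris buffer with 10 mM MgCl2, 1 mM EDTA, 0.1% DMSO.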
# [2] = molecular target: T2, CHO cells over-expressing the EP3 receptor (Homo sapiens, UniProt P43115); test: CHO cell cAMP assay; EP3 cAMP antagonist dose response (sulprostone reference), HTRF; type: cell-based; conditions: sulprostone 700 nM (EC80) and FSK 2 μM (EC70); read-out: CHO_cAMP IC50
# T2 construct: expressed in transfected cells; host or cells: CHO cells
# T2 sequence (P43115 1-390): T1 sequence (P43115 1-390)
# Summary of the method: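 EP3-overexpressing CHO cells pre-incubated with test compound, then stimulated 30 min at 37 °C with FSK (2 μM, EC70) plus sulprostone (700 nM, EC80); antagonism seen as restored cAMP. cAMP measured by HTRF 665/615 ratio, converted via on-plate standard curve. IC50 from Hill fit of 11-point dosing.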
Compound,Ki [1] [nM],IC50 [2] [nM],Ki ([1]; unit nM) [nM]
"COc1ccc(F)c(S(=O)(=O)NC(=O)NC/C=C2\COCc3cnn(Cc4ccc(Cl)cc4Cl)c32)c1 [Compound #68, (Z)—N-((2-(1-(2,4-dichlorobenzyl)-1,4-dihydropyrano[4,3-c]pyrazol-7(6H)-ylidene)ethyl)carbamoyl)-2-fluoro-5-methoxybenzenesulfonamide]",27,32,–
"O=C(NC/C=C1\CC(F)(F)Cc2cnn(-c3cccc(C(F)(F)F)c3)c21)NS(=O)(=O)c1ccc(Cl)cc1 [Compound #70, (E)-4-chloro-N-((2-(5,5-difluoro-1-(3-(trifluoromethyl)phenyl)-1,4,5,6-tetrahydro-7H-indazol-7-ylidene)ethyl)carbamoyl)benzenesulfonamide]",1000,8200,–
"CC(C)Cn1ncc2c1/C(=C/CNC(=O)NS(=O)(=O)c1ccc(Cl)cc1)CCC2 [Compound #80, (E)-4-chloro-N-((2-(1-isobutyl-1,4,5,6-tetrahydro-7H-indazol-7-ylidene)ethyl)carbamoyl)benzenesulfonamide]",920,4400,–
"O=C(NS(=O)(=O)c1ccc(Cl)cc1)OC/C=C1\c2c(cnn2Cc2ccc(Cl)cc2Cl)CCC1(F)F [Compound #81, (E)-2-(1-(2,4-dichlorobenzyl)-6,6-difluoro-1,4,5,6-tetrahydro-7H-indazol-7-ylidene)ethyl ((4-chlorophenyl)sulfonyl)carbamate]",> 10000,14100,–
"O=C(NS(=O)(=O)c1ccc(Cl)cc1)OC/C=C1/c2c(cnn2Cc2ccc(Cl)cc2Cl)CCC1(F)F [Compound #82, (Z)-2-(1-(2,4-dichlorobenzyl)-6,6-difluoro-1,4,5,6-tetrahydro-7H-indazol-7-ylidene)ethyl ((4-chlorophenyl)sulfonyl)carbamate]",106,2600,–
"O=C(NC/C=C1\CCCc2cnn(-c3ccc(Cl)cc3Cl)c21)NS(=O)(=O)c1cc(Cl)c(Cl)s1 [Compound #84, (E)-4,5-dichloro-N-((2-(1-(2,4-dichlorophenyl)-1,4,5,6-tetrahydro-7H-indazol-7-ylidene)ethyl)carbamoyl)thiophene-2-sulfonamide]",1,5,–
"O=C(NC/C=C1\CCCc2cnn(-c3ccc(C(F)(F)F)cc3)c21)NS(=O)(=O)c1cc(Cl)c(Cl)s1 [Compound #85, (E)-4,5-dichloro-N-((2-(1-(4-(trifluoromethyl)phenyl)-1,4,5,6-tetrahydro-7H-indazol-7-ylidene)ethyl)carbamoyl)thiophene-2-sulfonamide]",–,4,0.4
"O=C(NC/C(F)=C1\CCCc2cnn(Cc3ccc(Cl)cc3Cl)c21)NS(=O)(=O)c1ccc(Cl)cc1 [Compound #86, (Z)-4-chloro-N-((2-(1-(2,4-dichlorobenzyl)-1,4,5,6-tetrahydro-7H-indazol-7-ylidene)-2-fluoroethyl)carbamoyl)benzenesulfonamide]",28,69,–
"O=C(NC/C=C1\CCCc2cn(Cc3ccc4ccccc4c3)nc21)NS(=O)(=O)c1cc(Cl)c(Cl)s1 [Compound #87, (E)-4,5-dichloro-N-((2-(2-(naphthalen-2-ylmethyl)-2,4,5,6-tetrahydro-7H-indazol-7-ylidene)ethyl)carbamoyl)thiophene-2-sulfonamide]",110,435,–
"O=C(NC/C=C1\CCCc2cnn(Cc3ccc4ccccc4c3)c21)NS(=O)(=O)c1cc(Cl)c(Cl)s1 [Compound #88, (E)-4,5-dichloro-N-((2-(1-(naphthalen-2-ylmethyl)-1,4,5,6-tetrahydro-7H-indazol-7-ylidene)ethyl)carbamoyl)thiophene-2-sulfonamide]",104,554,–

# Continued, values first:
Ki [1] [nM],IC50 [2] [nM],Ki ([1]; unit nM) [nM],Compound
44,121,–,"COc1cccc(S(=O)(=O)NC(=O)NC/C=C2\COCc3cnn(Cc4ccc(Cl)cc4Cl)c32)c1 [Compound #63, (Z)—N-((2-(1-(2,4-dichlorobenzyl)-1,4-dihydropyrano[4,3-c]pyrazol-7(6H)-ylidene)ethyl)carbamoyl)-3-methoxybenzenesulfonamide]"
12,81,–,"COc1ccc(F)cc1S(=O)(=O)NC(=O)NC/C=C1\COCc2cnn(Cc3ccc(Cl)cc3Cl)c21 [Compound #64, (Z)—N-((2-(1-(2,4-dichlorobenzyl)-1,4-dihydropyrano[4,3-c]pyrazol-7(6H)-ylidene)ethyl)carbamoyl)-5-fluoro-2-methoxybenzenesulfonamide]"
27,44,–,"COc1ccc(Cl)c(S(=O)(=O)NC(=O)NC/C=C2\COCc3cnn(Cc4ccc(Cl)cc4Cl)c32)c1 [Compound #65, (Z)-2-chloro-N-((2-(1-(2,4-dichlorobenzyl)-1,4-dihydropyrano[4,3-c]pyrazol-7(6H)-ylidene)ethyl)carbamoyl)-5-methoxybenzenesulfonamide]"
4,21,–,"COc1ccc(Cl)cc1S(=O)(=O)NC(=O)NC/C=C1\COCc2cnn(Cc3ccc(Cl)cc3Cl)c21 [Compound #66, (Z)-5-chloro-N-((2-(1-(2,4-dichlorobenzyl)-1,4-dihydropyrano[4,3-c]pyrazol-7(6H)-ylidene)ethyl)carbamoyl)-2-methoxybenzenesulfonamide]"
26,74,–,"COc1ccc(S(=O)(=O)NC(=O)NC/C=C2\COCc3cnn(Cc4ccc(Cl)cc4Cl)c32)cn1 [Compound #67, (Z)—N-((2-(1-(2,4-dichlorobenzyl)-1,4-dihydropyrano[4,3-c]pyrazol-7(6H)-ylidene)ethyl)carbamoyl)-6-methoxypyridine-3-sulfonamide]"
179,118,–,"CC(C)S(=O)(=O)NC(=O)CC/C=C1\CCCc2cnn(Cc3ccc(Cl)cc3Cl)c21 [Compound #69, (E)-4-(1-(2,4-dichlorobenzyl)-1,4,5,6-tetrahydro-7H-indazol-7-ylidene)-N-(isopropylsulfonyl)butanamide]"
3,5,–,"O=C(NC/C=C1/c2c(cnn2Cc2ccc(Cl)cc2Cl)CCC1F)NS(=O)(=O)c1ccc(Cl)cc1 (stereo not drawn) [Compound #73, (Z)-4-chloro-N-((2-(1-(2,4-dichlorobenzyl)-6-fluoro-1,4,5,6-tetrahydro-7H-indazol-7-ylidene)ethyl)carbamoyl)benzenesulfonamide]"
35,31,–,"CN(C/C(F)=C1\COCc2cnn(Cc3ccc(Cl)cc3Cl)c21)C(=O)NS(=O)(=O)c1cc(Cl)c(Cl)s1 [Compound #74, (E)-4,5-dichloro-N-((2-(1-(2,4-dichlorobenzyl)-1,4-dihydropyrano[4,3-c]pyrazol-7(6H)-ylidene)-2-fluoroethyl)(methyl)carbamoyl)thiophene-2-sulfonamide]"
1,4,–,"O=C(NC/C=C1\CCCc2cnn(-c3ccc(Br)cc3)c21)NS(=O)(=O)c1cc(Cl)c(Cl)s1 [Compound #75, (E)-N-((2-(1-(4-bromophenyl)-1,4,5,6-tetrahydro-7H-indazol-7-ylidene)ethyl)carbamoyl)-4,5-dichlorothiophene-2-sulfonamide]"
2,9,–,"O=C(NC/C=C1\CCCc2cnn(-c3cccc(-c4ccc(F)cc4)c3)c21)NS(=O)(=O)c1cc(Cl)c(Cl)s1 [Compound #76, (E)-4,5-dichloro-N-((2-(1-(4′-fluoro-[1,1′-biphenyl]-3-yl)-1,4,5,6-tetrahydro-7H-indazol-7-ylidene)ethyl)carbamoyl)thiophene-2-sulfonamide]"
12,258,–,"O=C(NC/C=C1\CCCc2cnn(-c3cccc(Br)c3)c21)NS(=O)(=O)c1cc(Cl)c(Cl)s1 [Compound #77, (E)-N-((2-(1-(3-bromophenyl)-1,4,5,6-tetrahydro-7H-indazol-7-ylidene)ethyl)carbamoyl)-4,5-dichlorothiophene-2-sulfonamide]"
1,10,–,"O=C(NC/C=C1\CCCc2cnn(-c3cccc4ccccc34)c21)NS(=O)(=O)c1cc(Cl)c(Cl)s1 [Compound #78, (E)-4,5-dichloro-N-((2-(1-(naphthalen-1-yl)-1,4,5,6-tetrahydro-7H-indazol-7-ylidene)ethyl)carbamoyl)thiophene-2-sulfonamide]"
–,2,0.4,"O=C(NC/C=C1\CCCc2cnn(-c3ccc4ccccc4c3)c21)NS(=O)(=O)c1cc(Cl)c(Cl)s1 [Compound #79, (E)-4,5-dichloro-N-((2-(1-(naphthalen-2-yl)-1,4,5,6-tetrahydro-7H-indazol-7-ylidene)ethyl)carbamoyl)thiophene-2-sulfonamide]"
97,266,–,"O=C(NC/C(F)=C1\COCc2cnn(Cc3ccc(Cl)cc3Cl)c21)NS(=O)(=O)c1ccc(Cl)cc1 [Compound #83, (E)-4-chloro-N-((2-(1-(2,4-dichlorobenzyl)-1,4-dihydropyrano[4,3-c]pyrazol-7(6H)-ylidene)-2-fluoroethyl)carbamoyl)benzenesulfonamide]"

# Reference: patent US20210253562A1, “ACYLSUFONAMIDE COMPOUNDS USEFUL AS EP3 RECEPTOR ANTAGONISTS” (Janssen Pharmaceutica NV, priority 2018, published 2021)
